Seven molecules from patent publication US12594349B2, “Compositions and methods for the targeting of PCSK9” (Scribe Therapeutics Inc., priority 2022, dated 2026) can be followed below.

The subject of series [1] is PCSK9 locus. As to the kind of experiment: RNA-seq, normalized PCSK9 read counts in transfected Huh7 cells. Format: cell-based, human. Conditions: Huh7, mRNA + gRNA scaffold 316 v1, 6 and 26 days post-transfection. An excerpt: (§1) Seeded Huh7 cells were transfected with mRNA encoding a catalytically-active CasX 676, dXR1, or LTRP5-ADD-ZIM3 and a gRNA with scaffold 316 and a spacer targeting the PCSK9 locus. Cells were harvested at 6 and 26 days post-transfection and subsequently lysed and stored in DNA/RNA Shield (Zymo Research). As an additional control, untreated, naïve cells were also harvested. The collected samples were subjected to gDNA/RNA extraction using the Quick-DNA/RNA Miniprep Plus kit (Zymo Research). RNA samples were used for total RNA sequencing (RNA-seq), which was performed by a third-party. Raw FASTQ files were received and processed with FASTQC, and adapters were trimmed using Trim Galore. Transcript expression was then quantified against the hg38 genome using Salmon to generate normalized counts for each gene (transcripts per million, or TPM). Differential expression analysis was performed using DESeq2. Genes with fewer than 10 counts in all samples were omitted from analysis, and all pairwise comparisons (e.g., differential gene expression analyses between untreated and treated conditions at the two individual timepoints) were done with significance thresholds of |log 2FC|>2 and adjusted p-value<0.001.

The test system of series [2] is Huh7 cells. As to the kind of experiment: RNA-seq, differentially regulated off-target genes in transfected Huh7 cells. The series is classed as cell-based, human. The conditions noted are these: Huh7, 6 and 26 days post-transfection, |log2FC|>2 and adjusted p-value<0.001.
Excerpt: as §1

In series [3] the test system is human PCSK9 locus. As to the kind of experiment: Secreted PCSK9 by ELISA in Huh7 cells transfected with mRNA and gRNA. Format: cell-based. Conditions: Huh7 cells; for Secreted PCSK9: 6 days post-transfection, normalized to total cell count; for Percent reduction in PCSK9 secretion / Average percent reduction in PCSK9 secretion: LTRP5-ADD-ZIM3 mRNA; for Percent reduction in PCSK9 secretion: day 6, relative to non-targeting gRNA control; for Average percent reduction in PCSK9 secretion: day 6, averaged from the two doses. The procedure, abridged: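 Huh7 (also HepG2, Hep3B) cells were transfected with mRNA for CasX 676, dXR1 or LTRP5-ADD-ZIM3 plus scaffold 316 gRNA targeting PCSK9 or B2M; one screen used 50:25 or 25:12.5 ng mRNA:gRNA. Supernatant PCSK9 was measured by ELISA at 4–87 days post-transfection and normalized to cell count.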
For orientation: In an ELISA, binding on a coated surface is turned into a signal by an enzyme label.

Series [4] relates to mouse PCSK9 locus. As to the kind of experiment: Intracellular PCSK9 staining by flow cytometry in Hepa1-6 cells lipofected with mRNA and gRNA. Format: cell-based. Conditions: Hepa1-6, dXR1 mRNA, day 6. How it is done:
Seeded Hepa1-6 cells treated with the NATE™ inhibitor were lipofected with 300 ng of mRNA encoding dXR1 or LTRP1-ZIM3 (Table 12) and 150 ng of a PCSK9-targeting gRNA (Table 14). Seven different gRNAs spanning the promoter region of the mouse PCSK9 locus were tested, in addition to a non-targeting sequence complementary to the human PCSK9 gene (Table 14). Cells were harvested at 6, 13, and 25 days after transfection to measure intracellular levels of the PCSK9 protein using an intracellular flow cytometry staining protocol. […]
Seeded Hepa1-6 cells treated with the NATE™ inhibitor were lipofected with 300 ng of mRNA encoding LTRP1-ZIM3, LTRP5-ZIM3, catalytically-active CasX 491, or dCas9-ZNF10-DNMT3A/3L, and 150 ng of PCSK9-targeting gRNA (Table 14). Intracellular levels of PCSK9 protein were measured at 7, 14, 21, 36, and 71 days post-transfection using an intracellular staining protocol as described earlier for experiment #1.
Transfection of mRNA and gRNA into Hepa1-6 cells and intracellular PCSK9 staining were performed as described in Example 2. […] Intracellular levels of PCSK9 protein were measured at various timepoints, up to day 53 post-transfection using an intracellular staining protocol as described earlier in Example 2. […]

The test system of series [5] is B2M locus. Format: cell-based. Conditions: for B2M repression compared with LTRP5-ZIM3: HEK293T, LTRP5 constructs without ADD domain, scaffold 316 spacer 7.165, days 6/7 to 26/27; for % HLA-negative cells (mean): HEK293T cells, gRNA with B2M-targeting spacer 7.37.
The subject of series [6] is HBEGF. Format: cell-based, human.
The mark [7] stands for this setting: LTRP5-ADD-ZIM3 mRNA + gRNA scaffold 316, 25 ng mRNA:12.5 ng gRNA.
The mark [8] stands for this setting: LTRP5-ADD-ZIM3 mRNA + gRNA scaffold 316, 50 ng mRNA:25 ng gRNA.

Where two headings read alike, the source gives them in different places.

As for “TG-06-154 (guide AGGGUGUGGGUGCUUGACGC; listed as RNA, chemistry not given here)”, in series [1], the “PCSK9 expression by RNA-seq” value is recorded as “durably repress PCSK9 expression”. For the same molecule, the “differentially regulated off-target genes” value in series [2] is “higher number of differentially regulated off-target genes”. In addition, the “Secreted PCSK9” value is listed as 24.48 ng/mL in series [3] (setting [7]) and 6.87 ng/mL in series [3] (setting [8]). For the same molecule, the “Percent reduction in PCSK9 secretion” value in series [3] (25 ng mRNA:12.5 ng gRNA) is given as 65.64%; in series [3] (50 ng mRNA:25 ng gRNA) it was 91.65%. The “Average percent reduction in PCSK9 secretion” value (“Average percent reduction” below) in series [3] was determined as 78.64%.

As for “TG-06-133 (guide AUGGUAGGCACAAGCUCAGC; listed as RNA, chemistry not given here)”, the “PCSK9 expression by RNA-seq” value in series [1] was “durably repress PCSK9 expression”. The “differentially regulated off-target genes” value in series [2] is given as “lowest number of differentially regulated off-target genes”. In addition, the “Secreted PCSK9” value in series [3] (setting [7]) came to 42.13 ng/mL; in series [3] (setting [8]) it was 29.45 ng/mL. In addition, the figures for the “Percent reduction in PCSK9 secretion” value in series [3] (25 ng mRNA:12.5 ng gRNA) and in series [3] (50 ng mRNA:25 ng gRNA) were 40.86% and 64.21%, respectively. For the same molecule, the “Average percent reduction” value in series [3] is 52.53%.

In the case of “TG-06-167 (guide CACUGAAUAGCGCAGCCGCA; listed as RNA, chemistry not given here)”, the “PCSK9 expression by RNA-seq” value in series [1] is reported as “durably repress PCSK9 expression”. Moreover, in series [2], the “differentially regulated off-target genes” value is given as “higher number of differentially regulated off-target genes”. The entries for the “Secreted PCSK9” value in series [3] (setting [7]) and in series [3] (setting [8]) were 66.61 ng/mL and 39.55 ng/mL, respectively. Further, the “Percent reduction in PCSK9 secretion” value is 6.51% in series [3] (25 ng mRNA:12.5 ng gRNA) and 51.93% in series [3] (50 ng mRNA:25 ng gRNA). In series [3], the “Average percent reduction” value is recorded as 29.22%.

B1: 27.100 (nucleic acid)
guide: ACUUUGAGAGCCAUCACCAGCGACUAUGUCGUAGUGGGUAAAGCUCCCUCUUCGGAGGGAGCAUCAAAGCUCUCUCUUUCUGAGGCmU*mA*mG
modifications: as printed in the source, key not given here
Consider B1, for which the “degree of repression with dXR1 mRNA compared with LTRP1-ZIM3 mRNA” value in series [4] is “less substantial”.

B2: DOMAIN_26749: repressor domain derived from the king cobra, Ophiophagus hannah; SEQ ID NO: 135 (protein)
chain: STPVTFEDVVVYFTAAEWVHLTNWQRDFYQAVMMETYELVASVAGDGVPMAEDEEGGVERPVWQYIPRGKRRRKTPQPRAD
modifications: Ophiophagus hannah
For the molecule B2, the “B2M repression compared with LTRP5-ZIM3” value in series [5] is listed as “most effective”. Besides, the “log 2(fold change) of abundance before and after selection” value in series [6] (HEK293T, dCasX491 fusion, scaffold 174 spacer 34.28, 2 ng/mL diphtheria toxin for 48 hours) is “highest log 2 (fold change)”.

B3: DOMAIN_29304: one of the top nine most effective repressor domains (protein, listed as Peromyscus maniculatus)
chain: VTYNDVHVDITQEEWALMDPSQRNLYKDVMVETYMNLTAIGYNWENLEVEEPCQNPLKHGRHERPHTGEKPYEYNQCGKAFAQP
Turning to B3, in series [5], the “B2M repression compared with LTRP5-ZIM3” value is on record as “most effective”. Besides, the “Log2 (fold change)” value in series [6] (fold change in abundance of each domain in the library before and after diphtheria toxin selection, dXR repression of the HBEGF gene, criteria p-value <0.01 and log2(fold change) >2) turned out to be 4.0496.

B4: dCasX491: catalytically-dead CasX variant, SEQ ID NO: 4 (protein)
chain: QEIKRINKIRRRLVKDSNTKKAGKTGPMKTLLVRVMTPDLRERLENLRKKPENIPQPISNTSRANLNKLLTDYTEMKKAILHVYWEEFQKDPVGLMSRVAQPASKKIDQNKLKPEMDEKGNLTTAGFACSQCGQPLFVYKLEQVSEKGKAYTNYFGRCNVAEHEKLILLAQLKPEKDSDEAVTYSLGKFGQRALDFYSIHVTKESTHPVKPLAQIAGNRYASGPVGKALSDACMGTIASFLSKYQDIIIEHQKVVKGNQKRLESLRELAGKENLEYPSVTLPPQPHTKEGVDAYNEVIARVRMWVNLNLWQKLKLSRDDAKPLLRLKGFPSFPLVERQANEVDWWDMVCNVKKLINEKKEDGKVFWQNLAGYKRQEALRPYLSSEEDRKKGKKFARYQLGDLLLHLEKKHGEDWGKVYDEAWERIDKKVEGLSKHIKLEEERRSEDAQSKAALTDWLRAKASFVIEGLKEADKDEFCRCELKLQKWYGDLRGKPFAIEAENSILDISGFSKQYNCAFIWQKDGVKKLNLYLIINYFKGGKLRFKKIKPEAFEANRFYTVINKKSGEIVPMEVNFNFDDPNLIILPLAFGKRQGREFIWNDLLSLETGSLKLANGRVIEKTLYNRRTRQDEPALFVALTFERREVLDSSNIKPMNLIGVARGENIPAVIALTDPEGCPLSRFKDSLGNPTHILRIGESYKEKQRTIQAKKEVEQRRAGGYSRKYASKAKNLADDMVRNTARDLLYYAVTQDAMLIFANLSRGFGRQGKRTFMAERQYTRMEDWLTAKLAYEGLSKTYLSKTLAQYTSKTCSNCGFTITSADYDRVLEKLKKTATGWMTTINGKELKVEGQITYYNRYKRQNVVKDLSVELDRLSEESVNNDISSWTKGRSGEALSLLKKRFSHRPVQEKFVCLNCGFETHAAEQAALNIARSWLFLRSQEYKKYQTNKTTGNTDKRAFVETWQSFYRKKLKEVWKPAV
For the molecule B4, the “% HLA-negative cells (mean)” value in series [5] (50 days post-transfection) came to 0.49%; in series [5] (73 days post-transfection), 0.83%.
